Assay results as given in patent US5607926A, “Cephalosporin antibiotics” (Microcide Pharmaceuticals, Inc., priority 1995, dated 1997).
Converted amounts (≈) assume the structure as drawn. Where two headings read alike, the source gives them in different places.

What was measured:
[1] = tested on: X. maltophilia ATCC 13637; assay: In vitro antibacterial evaluation, MIC by agar dilution, X. maltophilia ATCC 13637; type: cell-based; conditions: Stenotrophomonas maltophilia, ATCC13637
Protocol: (§1) The compounds of the invention were evaluated against several β-lactamresistant bacteria strains by determining the minimum inhibitory concentration (MIC, μg/ml) of each compound with respect to each strain. The MIC, the lowest concentration of antibiotic which inhibits growth of the test organism, was determined by the agar dilution method.
(§2) To determine the MIC for bacterial isolates, the test compound was incorporated in a series of two-fold dilutions into liquified Mueller-Hinton agar. Upon solidification, a number of different bacterial strains were spot inoculated with a replicating device onto the agar surface. […] The procedures used in these studies have been standardized by the National Committee for Clinical Laboratory Standards (NCCLS), as per the NCCLS publication entitled METHODS FOR DILUTION ANTIMICROBIAL SUSCEPTIBILITY TESTS (1991), which is incorporated herein by reference.
(§3) Aliquots of antimicrobial agents were prepared in phosphate buffered saline (PBS) at pH 7.2. Tween 20 or DMSO was used as a solubilizing vehicle as needed. Standard methods of vortexing, sonicating and gentle heat were used to facilitate solubilizing the test agent. Typically, the concentration of the stock solution was 10× that of the highest drug concentration tested. A 1.28 mg/mL stock solution was used with a subsequent highest working concentration of 128 μg/mL. Serial two-fold dilutions were done through ≤0.25 μg/mL. Each drug level was tested in duplicate. Two-fold drug dilutions were done in sterile 50 mL tubes with a final drug volume of 5 mL. Upon the addition of 45 mL of molten agar, a 10-fold dilution resulted. Two, 25 mL. plates were then poured into 15×150 mm square Petri plates with grids and allowed to harden.
(§4) A control plate with a reference drug, either cefotaxime, vancomycin or imipenem, was used as the positive growth control. Stock concentrations of reference antibiotics were prepared and frozen at -80° C. Upon preparation, the control plates were sealed and stored in the refrigerator for up to 1 week prior to use; however, imipenem control plates had to be prepared just prior to use. All test plates were used within 24 hours of preparation.
(§5) Satisfactory results were obtained where the inoculum contained about 10^4 colony forming units (cfu) ±0.5 logs. Starting with pure cultures of the test isolates on agar plates, a few isolated colonies were transferred to a tube of nutrient broth and allowed to grow 4-6 hours at 35°-36° C. to reach log-phase growth. Dropwise addition of the broth culture to PBS was done to match a 0.5 McFarland turbidity standard equal to 10^8 cfu/mL. This was further diluted ten-fold in PBS to reach a working inoculum concentration of 10^7 cfu/mL. When 1 μL of the working inoculum was applied to the agar surface a concentration of about 10^4 cfu per spot was obtained.
(§6) Disposable sterile 1 μL loops were used to inoculate test plates, with each isolate in a designated grid on the agar plate. An alternate method of inoculation involved the use of a replica plater, a device with 48 steel pins allowing the simultaneous inoculation of multiple isolates. After the spots had dried, the plates were incubated at 35°-36° C. for 16-20 hours. Endpoints were assessed as the minimum inhibitory concentration (MIC) of antimicrobial agent.

E. faecalis ATCC 29212 = assay: In vitro antibacterial evaluation, MIC by agar dilution, E. faecalis ATCC 29212; type: cell-based; conditions: Enterococcus faecalis, ATCC29212; E. faecalis ATCC 29212; read-out: MIC
Summary of the method: (§7)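 NCCLS agar dilution; Mueller-Hinton agar, 2-fold series 128 to ≤0.25 μg/mL, duplicates. Inoculum ~10^4 cfu/spot from 4-6 h log-phase broth culture. 35°-36° C, 16-20 h; MIC = lowest concentration with no growth.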

[2] = tested on: S. epidermidis ATCC 31432; assay: In vitro antibacterial evaluation, MIC by agar dilution, S. epidermidis ATCC 31432; type: cell-based; conditions: Staphylococcus epidermidis, ATCC31432
Summary of the method: as §7

S. haemolyticus (Meth^R) = assay: In vitro antibacterial evaluation, MIC by agar dilution, S. haemolyticus; type: cell-based; conditions: Staphylococcus haemolyticus, read-out: MIC
Summary of the method: as §7

E. coli ATCC 25922 = assay: In vitro antibacterial evaluation, MIC by agar dilution, E. coli ATCC 25922; type: cell-based; conditions: Escherichia coli, ATCC25922, read-out: MIC
Summary of the method: as §7

[3] = tested on: S. aureus Col8A (Meth^S)(lac^-); assay: In vitro antibacterial evaluation, MIC by agar dilution, S. aureus Col8A; type: cell-based; conditions: Staphylococcus aureus
Summary of the method: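 Log-phase isolates were spot-inoculated at about 10^4 cfu onto Mueller-Hinton agar carrying duplicate two-fold compound levels, 128 μg/mL to ≤0.25 μg/mL, following NCCLS (1991). Plates were read after 16-20 h at 35°-36° C. The lowest growth-inhibiting concentration gave the MIC (μg/ml).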

E. faecium ATCC 35667 = assay: In vitro antibacterial evaluation, MIC by agar dilution, E. faecium ATCC 35667; type: cell-based; conditions: Enterococcus faecium, ATCC35667, read-out: MIC
Summary of the method: as §7

S. aureus ATCC 29213 = assay: In vitro antibacterial evaluation, MIC by agar dilution, S. aureus ATCC 29213; type: cell-based; conditions: Staphylococcus aureus, ATCC29213
Summary of the method: as §7

[4] = tested on: S. aureus 76 (Meth^R)(lac^+); assay: In vitro antibacterial evaluation, MIC by agar dilution, S. aureus 76; type: cell-based; conditions: Staphylococcus aureus, read-out: MIC
Summary of the method: as §7

P. aeruginosa ATCC 27853 = assay: In vitro antibacterial evaluation, MIC by agar dilution, P. aeruginosa ATCC 27853; type: cell-based; conditions: Pseudomonas aeruginosa, ATCC27853, read-out: MIC
Summary of the method: as §7

S. aureus ATCC 25923 = assay: In vitro antibacterial evaluation, MIC by agar dilution, S. aureus ATCC 25923; type: cell-based; conditions: Staphylococcus aureus, ATCC25923
Summary of the method: as §7

[5] = tested on: methicillinsusceptible S. aureus strain ATCC 13709; assay: Challenge strain MIC; type: cell-based; conditions: Staphylococcus aureus, ATCC13709, S. aureus ATCC 13709; read-out: Challenge str MIC
Protocol: as §1, §2, §3, §4, §5, §6
data reported for challenge with methicillinsusceptible S. aureus strain

[6] = tested on: methicillinsusceptible S. aureus strain ATCC 13709; assay: In vivo antibacterial evaluation, murine model for lethal bacteremic peritonitis; design: species or system S. aureus in female Swiss-Webster mice; conditions: Staphylococcus aureus, ATCC13709, sc, 72 h, two equal SC doses at challenge and 2 hours later, mice, probit, read-out: ED50
Summary of the method: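 Female Swiss-Webster mice received IP an LD100 bacterial titer in 7% hog gastric mucin, then two equal subcutaneous doses (at challenge and 2 h later) of two-fold increments of drug, range 0.01–512 mg/kg. Survival scored at 72 h; PD50 (total mg/kg) by probit, groups of 10.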

[7] = S. epidermidis ATCC 31432, read-out: MIC
[8] = S. aureus ATCC 29213, read-out: MIC
[9] = S. aureus ATCC 25923, read-out: MIC

SMILES	MIC [1] [mg/L]	MIC (E. faecalis ATCC 29212) [mg/L]	MIC [2, 7] [mg/L]	MIC (S. haemolyticus (Meth^R)) [mg/L]	MIC (E. coli ATCC 25922) [mg/L]	MIC [3] [mg/L]	MIC (E. faecium ATCC 35667) [mg/L]	MIC (S. aureus ATCC 29213; [8]) [mg/L]	MIC [4] [mg/L]	MIC (P. aeruginosa ATCC 27853) [mg/L]	MIC (S. aureus ATCC 25923; [9]) [mg/L]	MIC [2] [mg/L]	MIC (S. aureus ATCC 25923) [mg/L]	MIC (S. aureus ATCC 29213) [mg/L]	MIC [5] [mg/L]	ED50 [6] [mg/kg]
O=C(Cc1ccccc1)N[C@@H]1C(=O)N2C(C(=O)O)=C(Sc3ccc(F)cc3)CS[C@H]12 [Cmpd 1, (7R)-7-[(Phenylacetyl)amino]-3-(p-fluorophenylthio)-3-cephem-4-carboxylic acid]	> 32	2 (≈ 4.5 µM)	< 0.015	> 32	> 32	0.03 (≈ 0.0675 µM)	8 (≈ 18 µM)	0.03 (≈ 0.0675 µM)	32 (≈ 72 µM)	> 32	< 0.015	–	–	–	–	–
O=C(Cc1ccccc1)N[C@@H]1C(=O)N2C(C(=O)O)=C(Sc3cccc(I)c3)CS[C@H]12 [Cmpd 2, (7R)-7-[(Phenylacetyl)amino]-3-(m-iodophenylthio)-3-cephem-4-carboxylic acid]	> 32	2 (≈ 3.62 µM)	< 0.015	16 (≈ 29 µM)	> 32	0.03 (≈ 0.0543 µM)	2 (≈ 3.62 µM)	0.03 (≈ 0.0543 µM)	16 (≈ 29 µM)	> 32	< 0.015	–	–	–	–	–
O=C(Cc1ccccc1)N[C@@H]1C(=O)N2C(C(=O)O)=C(Sc3ccc(Cl)cc3)CS[C@H]12 [Cmpd 3, (7R)-7-[(Phenylacetyl)amino]-3-(p-chlorophenylthio)-3-cephem-4-carboxylic acid]	> 32	2 (≈ 4.34 µM)	–	16 (≈ 34.7 µM)	> 32	0.015 (≈ 0.0325 µM)	4 (≈ 8.68 µM)	0.03 (≈ 0.0651 µM)	16 (≈ 34.7 µM)	> 32	–	< 0.015	< 0.015	–	–	–
O=C(Cc1ccccc1)N[C@@H]1C(=O)N2C(C(=O)O)=C(Sc3ccc4c(c3)oc3ccccc34)CS[C@H]12 [Cmpd 7, (7R)-7-[(Phenylacetyl)amino]-3-(dibenzofuranyl-3-thio)-3-cephem-4-carboxylic acid]	> 32	1 (≈ 1.94 µM)	< 0.06	–	> 32	0.06 (≈ 0.116 µM)	–	< 0.06	16 (≈ 31 µM)	> 32	< 0.06	–	–	–	–	–
O=C(Cc1ccccc1)N[C@@H]1C(=O)N2C(C(=O)O)=C(Sc3ccc(-c4ccccc4)cc3)CS[C@H]12 [Cmpd 8, (7R)-7-[(Phenylacetyl)amino]-3-(4-biphenylthio)-3-cephem-4-carboxylic acid]	> 32	4 (≈ 7.96 µM)	–	–	> 32	< 0.125	–	–	> 32	> 32	–	< 0.125	< 0.125	< 0.125	–	–
O=C(Cc1ccccc1)N[C@@H]1C(=O)N2C(C(=O)O)=C(Sc3cccc(-c4ccccc4)c3)CS[C@H]12 [Cmpd 10, (7R)-7-[(Phenylacetyl)amino]-3-(3-biphenylthio)-3-cephem-4-carboxylic acid]	> 32	2 (≈ 3.98 µM)	< 0.06	–	> 32	0.125 (≈ 0.249 µM)	–	–	32 (≈ 63.7 µM)	> 32	< 0.06	–	–	0.125 (≈ 0.249 µM)	–	–
N#CCC(=O)N[C@@H]1C(=O)N2C(C(=O)O)=C(Sc3ccccc3I)CS[C@H]12 [Cmpd 17, (7R)-7-[(Cyanoacetyl)amino]-3-(o-iodophenylthio)-3-cephem-4-carboxylic acid]	–	–	–	8 (≈ 16 µM)	> 64	< 0.25	1 (≈ 1.99 µM)	–	4 (≈ 7.98 µM)	–	–	< 0.25	–	< 0.25	0.125 (≈ 0.249 µM)	3.41
N#Cc1ccccc1SC1=C(C(=O)O)N2C(=O)[C@@H](NC(=O)Cc3ccccc3)[C@H]2SC1 [Cmpd 41, (7R)-7-[(Phenylacetyl)amino]-3-(2-cyanophenylthio)-3-cephem-4-carboxylic acid]	–	4 (≈ 8.86 µM)	–	16 (≈ 35.4 µM)	> 32	< 0.25	2 (≈ 4.43 µM)	–	4 (≈ 8.86 µM)	> 32	–	< 0.25	< 0.25	–	0.06 (≈ 0.133 µM)	1.13
O=C(Cc1ccccc1)N[C@@H]1C(=O)N2C(C(=O)O)=C(Sc3cccnc3-c3ccccc3)CS[C@H]12 [Cmpd 81, (7R)-7-[(Phenylacetyl)amino]-3-(2-phenylpyridin-3-ylthio)-3-cephem-4-carboxylic acid]	–	2 (≈ 3.97 µM)	–	16 (≈ 31.8 µM)	> 32	< 0.25	1 (≈ 1.99 µM)	–	4 (≈ 7.94 µM)	> 32	–	< 0.25	< 0.25	–	0.125 (≈ 0.248 µM)	8.46
O=C(Cc1ccccc1)N[C@@H]1C(=O)N2C(C(=O)O)=C(Sc3ccnn3-c3ccccc3)CS[C@H]12 [Cmpd 87, (7R)-7-[(Phenylacetyl)amino]-3-(1-N-phenylpyrazol-5-ylthio)-3-cephem-4-carboxylic acid]	–	2 (≈ 4.06 µM)	–	16 (≈ 32.5 µM)	> 32	< 0.25	1 to 2 (≈ 2.03 to 4.06 µM)	–	4 (≈ 8.12 µM)	> 32	–	< 0.25	< 0.25	–	0.06 (≈ 0.122 µM)	1.89
N#CCC(=O)N[C@@H]1C(=O)N2C(C(=O)O)=C(Sc3ccnn3-c3ccccc3)CS[C@H]12 [Cmpd 88, (7R)-7-[(Cyanoacetyl)amino]-3-(1-N-phenylpyrazol-5-ylthio)-3-cephem-4-carboxylic acid]	–	4 (≈ 9.06 µM)	–	16 (≈ 36.2 µM)	> 32	< 0.25	2 (≈ 4.53 µM)	–	16 (≈ 36.2 µM)	> 32	–	< 0.25	< 0.25	–	0.25 (≈ 0.566 µM)	0.31
Nc1nc(/C(=N/OC2CCCC2)C(=O)N[C@@H]2C(=O)N3C(C(=O)O)=C(Sc4ccnn4-c4ccccc4)CS[C@H]23)cs1 [Cmpd 89, (7R)-7-[(Z)-2-(aminothiazol-4-yl)-2-(cyclopentyloxyimino)acetamido]-3-(1-N-phenylpyrazol-5-ylthio)-3-cephem-4-carboxylic acid]	–	2 (≈ 3.27 µM)	< 0.25	8 (≈ 13.1 µM)	2 (≈ 3.27 µM)	0.5 (≈ 0.817 µM)	4 (≈ 6.54 µM)	0.5 (≈ 0.817 µM)	4 (≈ 6.54 µM)	8 (≈ 13.1 µM)	< 0.25	–	–	–	0.5 (≈ 0.817 µM)	> 10
